The results in this text go back to US20110207944A1, “VITAMIN D3 LACTAM DERIVATIVE” (TEIJIN PHARMA LIMITED, priority 2008, published 2011).

For one experiment, the target named is T1, human VDR (Homo sapiens, UniProt P11473).
T1 construct: expressed in transfected cells; host or cells: HOS cells (human osteosarcoma, ATCC), pcDNA3 expression vector, Lipofectamine 2000
T1 sequence (P11473 1-427): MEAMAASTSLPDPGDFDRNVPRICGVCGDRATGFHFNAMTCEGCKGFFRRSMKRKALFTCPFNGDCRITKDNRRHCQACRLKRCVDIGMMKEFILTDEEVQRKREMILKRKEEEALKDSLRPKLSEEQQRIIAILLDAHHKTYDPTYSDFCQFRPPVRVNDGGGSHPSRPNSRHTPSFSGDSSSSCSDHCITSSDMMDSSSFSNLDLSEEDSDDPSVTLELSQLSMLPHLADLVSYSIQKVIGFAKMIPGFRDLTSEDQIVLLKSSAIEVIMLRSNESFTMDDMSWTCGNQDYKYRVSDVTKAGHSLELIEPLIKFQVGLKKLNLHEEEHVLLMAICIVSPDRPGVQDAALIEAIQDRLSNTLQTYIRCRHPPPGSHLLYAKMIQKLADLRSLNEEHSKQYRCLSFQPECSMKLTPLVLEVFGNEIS
Briefly: Vitamin D3 receptor-antagonist activity: human osteocalcin promoter luciferase reporter in HOS cells transfected with human VDR and human RXR. The format is cell-based. Conditions: for Antagonist specific activity against TEI-9647 (%): IC50 of test compound with respect to IC50 of TEI-9647 in each experiment; for IC50: luciferase activity in HOS cells, with 1α,25-dihydroxyvitamin D3 1×10^−8 M, 24 hours. The text has this: Vitamin D3 Receptor-Antagonist Activity in Terms of the Transcription Activity in Human Osteocalcin by 1α,25-dihydroxyvitamin D3 as a Marker
(1) A pGL3 vector (Promega Corp.) was used as a reporter vector. The promoter sequence of the human osteocalcin gene, which was obtained by a known method (Ozono et al., J. Biol. Chem., 265:21881-21888, 1990), was cloned from cDNA acquired from HOS cells (obtained from ATCC) and inserted into the upstream of the luciferase gene on the reporter vector. An expression vector was constructed by inserting a DNA sequence encoding human VDR and human RXR into a pcDNA3 vector (Invitrogen Corp). The HOS cells were incubated in a DMEM medium supplemented with 10% FBS at 37° C. in the presence of 5% CO2, and subcultivated every 2 or 3 days.
(2) Cells being subcultivated were collected by centrifugation and re-suspended in a serum and phenol red-free DMEM medium at 4×10^5 cells/mL. The re-suspension of cells was plated in a 96 well plate at 0.1 mL/well. In this system, various vectors described in (1) were added at 0.05 mL/well with Lipofectamin 2000 (Invitrogen Corp.). After the incubation for 3 hours at 37° C., 1α,25-dihydroxyvitamin D3 and the compounds of the present invention in various concentrations or TEI-9647 (note) as a control (the final concentration: 1×10^−8 M for 1α,25-dihydroxyvitamin D3, and 1×10^−6M and 1×10^−12M for the compounds of the present invention and TEI-9647) were added to each well. After incubation at 37° C. for 24 hours, the medium was removed, the cells were washed with PBS(−) once, and measured for the luciferase activity using a Dual Glo-Luciferase Assay kit (Promega Corp.) by luminometer (Berthold Corp.). The resulting luciferase values were plotted against the concentration of the test compounds and IC50 was determined as the concentration of the test compound at which the luciferase value was inhibited by 50%. Furthermore, to compare the intensities of activity among experiments, the IC50 value of the test compounds with respect to the IC50 value of […] in each experiment was calculated as the antagonist specific activity (%) against TEI-9647.
On the technique in general: A reporter such as luciferase makes a cellular process visible.

The target in experiment [1] is T2, Human Vitamin D3 Receptor (VDR) (Homo sapiens, UniProt P11473).
T2 construct: purchased Invitrogen Corporation
T2 sequence (P11473 1-427): T1 sequence (P11473 1-427)
Briefly: Binding affinity to human vitamin D3 receptor (Polarscreen Vitamin D Receptor Competitor assay, Red; fluorescence polarization). Conditions: ratio of IC50 relative to IC50 of 1α,25-dihydroxyvitamin D3. As for the experimental part:
Binding Affinity to Human Vitamin D3 Receptor (VDR) This binding affinity was assessed by a VDR affinity measurement kit (Polarscreen™ Vitamin D Receptor Competitor assay, Red; Invitrogen Corporation). The compounds of the present invention or 1α,25-dihydroxyvitamin D3 at various concentrations in DTT-containing buffer (pH 7.5) were mixed with fluorescence-labeled VDR ligand-human VTR complex in DTT-containing buffer (pH 7.5). The degree of polarization of the resulting solution was measured after the incubation of the solution at room temperature. The polarization values were plotted against the concentration of the test compounds, IC50 (the concentration of the test compounds at which the polarized value is reduced to 50%) was determined.
(In general: In fluorescence polarisation assays a small probe gives low polarisation when free and higher when bound to something large.)

The test system of the next experiment is HL-60 cells. Briefly: Vitamin D3 receptor-antagonist effect: inhibition of 1α,25-dihydroxyvitamin D3-induced differentiation of HL-60 (NBT reduction activity). The format is cell-based. Conditions: Homo sapiens, 96 h; NBT-positive HL-60 cells, co-treatment with 1α,25-dihydroxyvitamin D3 1×10^−8 M, 4 days. The text has this:
Vitamin D3 Receptor-Antagonist Effect in Terms of Cellular Differentiation-Inducing Activity of 1α,25-dihydroxyvitamin D3 in HL-60 as a Marker
(1) A HL-60 cell line purchased from a cell bank (Japanese Cancer Research Resource Bank, Cell number: JCRB0085) was used. The cells were frozen for storage as a frozen storage stock to prevent cell characteristic changes due to successive cultivations. The cells were defrosted prior to the initiation of the experiment, and those which started successive culturing were used in the experiment. Cells subcultured for one month to a half year were used for the experiment. The successive culturing was carried out by diluting the cells at a ratio of about 1/100 (1-2×10^4 cells/mL) in a fresh medium after the collection of cells from a cell suspension by centrifugation. RPMI-1640 supplemented with 10% fetal bovine serum was used as the culture medium.
(2) The subcultured cells by the procedure described in (1) were collected by centrifugation and re-suspended in the medium at 5×10^3 cells/mL, and the cells were plated into a 24-well culture dish at 1 mL/well. To this system, a solution of 1α,25-dihydroxyvitamin D3 at a concentration of 1×10^−5 M and the compounds of the present invention in a range of […] to 3×10^−3 M in ethanol, respectively, were added at 1 μL per well (the final concentration: 1×10^−8 M for 1α,25-dihydroxyvitamin D3, and 1×10^−9 M to 3×10^−6 M for the compounds of the present invention). Ethanol was added at 1 μL per well as a control. After the plate was incubated at 37° C. for 4 days in the presence of 5% CO2, the cells were separated and collected by centrifugation.
(3) The induction of nitroblue tetrazolium (hereinafter NBT) reduction activity was used as a marker for cell differentiation-inducing activity of HL-60 cells. The measurement of NBT reduction activity was carried out according to the following procedure. Specifically, cells collected by centrifugation were re-suspended in a fresh medium. Then 0.1% of NBT and 12-O-tetradecanoylphorbor-13-acetate at a final concentration of 100 ng/mL were added to the cell suspension and the mixture was incubated at 37° C. for 25 minutes. Then the cytospin smears were prepared and stained with Kernechtrot after air-drying. The ratio of positive cells expressing NBT reduction activity was determined under optical microscopy. Percentage ratios of the ratio of NBT-positive cells in a simultaneous treatment with 1α,25-dihydroxyvitamin D3 (1×10^−8 M) and a compound of the present invention (1×10^−9M and 3×10^−6 M) over the ratio of the NBT-positive cells in a single treatment with 1α,25-dihydroxyvitamin D3 (1×10^−8 M) were plotted against the treating concentration of the compounds of the present invention. […]

As usually defined, the IC50 is the midpoint of a concentration-inhibition curve. For the molecule `C=C1/C(=C\C=C2/CCC[C@]3(C)[C@@H]([C@H](C)CC4CC(C)(O)C(=O)N4Cc4cc(OCC)cc(OCC)c4)CC[C@@H]23)C[C@@H](O)[C@H](C)[C@@H]1O` (single isomer, unassigned) [Compound No. 41c, 2α-methyl-1α,25-dihydroxyvitamin D3-26,23-lactam-N-(3,5-diethoxybenzyl)], at human VDR, the “Antagonist specific activity against TEI-9647 (%)” value (from here on “Antagonist specific activity … (%)”) was 17.8% and the IC50 is 52.7 nM. Besides, the “VDR affinity (%)” value in experiment [1] was 30%.
Turning to `C=C1/C(=C\C=C2/CCC[C@]3(C)[C@@H]([C@H](C)CC4CC(C)(O)C(=O)N4CCc4ccccc4)CC[C@@H]23)C[C@@H](O)[C@H](CCCO)[C@@H]1O` (stereo partly drawn) [Compound No. 12b, 2α-(3-hydroxypropyl)-1α,25-dihydroxyvitamin D3-26,23-lactam-N-(2-phenethyl)], the IC50 in the experiment with HL-60 cells was determined as 170 nM.
For the molecule `C=C1/C(=C\C=C2/CCC[C@]3(C)[C@@H]([C@H](C)CC4CC(C)(O)C(=O)N4Cc4cc(OCC)cc(OCC)c4)CC[C@@H]23)C[C@@H](O)[C@H](C)[C@@H]1O` (stereo partly drawn) [Compound No. 41a, 2α-methyl-1α,25-dihydroxyvitamin D3-26,23-lactam-N-(3,5-diethoxybenzyl)], the “VDR affinity (%)” value in experiment [1] is 31%.
Turning to `C=C1/C(=C\C=C2/CCC[C@@]3(C)C2CC[C@@H]3[C@H](C)CC2CC(C)(O)C(=O)N2Cc2cc(OCC)cc(OCC)c2)C[C@@H](O)[C@H](CCCO)[C@@H]1O` (stereo partly drawn) [Compound No. 42c, 2α-(3-hydroxypropyl)-1α,25-dihydroxyvitamin D2-26,23-lactam-N-(3,5-diethoxybenzyl)], at human VDR, the “Antagonist specific activity … (%)” value stood at 6.1% and the IC50 was 75 nM.
Turning to `C=C1/C(=C\C=C2/CCC[C@]3(C)[C@@H]([C@H](C)CC4CC(C)(O)C(=O)N4Cc4cc(OCC)cc(OCC)c4)CC[C@@H]23)C[C@@H](O)[C@H](OCCCO)[C@@H]1O` (stereo partly drawn) [Compound No. 43c, 2α-(3-hydroxypropoxy)-1α,25-dihydroxyvitamin D3-26,23-lactam-N-(3,5-diethoxybenzyl)], on human VDR, the “Antagonist specific activity … (%)” value is given as 9.8% and the IC50 was determined as 95.8 nM.
